From ChEMBL document CHEMBL1201862, “PubChem BioAssay data set” (2004)
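Each compound was tested at five concentrations against cells in 96-well plates for 48 hours. Here, GI50 denotes the concentration required for 50% inhibition of growth.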 Activity calls are given as the source filed them. No stated cut-off is given here; in the data, active = GI50 up to about 1.1 µM and inactive = higher.

Tests used:
Assay in all cases: NCI tumour cell line growth inhibition, 48 h
A498 = test system: A498
ACHN = test system: ACHN
CCRF-CEM = test system: CCRF-CEM
COLO 205 = test system: COLO 205
HL-60 = test system: HL-60
HT-29 = test system: HT-29
K562 = test system: K562
LOX IMVI = test system: LOX IMVI
M14 = test system: M14
NCI-H23 = test system: NCI-H23
NCI/ADR-RES = test system: NCI/ADR-RES
OVCAR-8 = test system: OVCAR-8
RXF 393 = test system: RXF 393
SF-539 = test system: SF-539
SK-MEL-2 = test system: SK-MEL-2
SK-MEL-5 = test system: SK-MEL-5
SW-620 = test system: SW-620
TK-10 = test system: TK-10
UACC-257 = test system: UACC-257
UACC-62 = test system: UACC-62

Measured: GI50

O=c1c2cccnc2[nH]c2ccc3cn[nH]c3c12
inactive: A498 > 10 µM | ACHN 3.97 µM | CCRF-CEM 6.15 µM | COLO 205 > 10 µM | HL-60 4.49 µM | HT-29 > 10 µM | K562 > 10 µM | LOX IMVI 5.58 µM | M14 7.14 µM | NCI-H23 > 10 µM | NCI/ADR-RES > 10 µM | OVCAR-8 6.76 µM | RXF 393 2.15 µM | SF-539 7.52 µM | SK-MEL-2 > 10 µM | SK-MEL-5 > 10 µM | SW-620 > 10 µM | TK-10 > 10 µM | UACC-257 > 10 µM | UACC-62 > 10 µM

CCOC(=O)C(Cl)(NC(=O)OCc1ccccc1)C(F)(F)F (stereo not given)
inactive: A498 > 100 µM | ACHN > 100 µM | CCRF-CEM > 100 µM | COLO 205 > 100 µM | HL-60 > 100 µM | HT-29 > 100 µM | K562 > 100 µM | LOX IMVI > 100 µM | M14 > 100 µM | NCI-H23 > 100 µM | NCI/ADR-RES > 100 µM | OVCAR-8 > 100 µM | RXF 393 > 100 µM | SF-539 > 100 µM | SK-MEL-2 > 100 µM | SK-MEL-5 > 100 µM | SW-620 > 100 µM | TK-10 > 100 µM | UACC-257 > 100 µM

COC(=O)C(C/C=C(\C)c1ccccc1)C(C)=O (stereo not given)
inactive: A498 > 100 µM | CCRF-CEM 40.9 µM | COLO 205 > 81.8 µM | HL-60 21.4 µM | HT-29 83.9 µM | K562 44.9 µM | LOX IMVI 68.2 µM | NCI-H23 90.6 µM | NCI/ADR-RES 54.6 µM | OVCAR-8 > 100 µM | RXF 393 > 100 µM | SF-539 > 100 µM | SK-MEL-2 52.7 µM | SK-MEL-5 59.6 µM | SW-620 > 100 µM | UACC-257 > 48.3 µM | UACC-62 > 63.4 µM

CC1(C)OC2OC(C(=O)c3ccccc3)C3OC(C)(C)OC3C2O1 (stereo not given)
inactive: A498 > 100 µM | ACHN > 100 µM | CCRF-CEM > 100 µM | COLO 205 > 100 µM | HL-60 > 100 µM | K562 > 100 µM | LOX IMVI > 100 µM | M14 > 100 µM | NCI-H23 > 100 µM | NCI/ADR-RES > 100 µM | OVCAR-8 > 100 µM | RXF 393 > 100 µM | SF-539 > 100 µM | SK-MEL-2 > 100 µM | SK-MEL-5 > 100 µM | SW-620 > 100 µM | TK-10 > 100 µM | UACC-257 > 100 µM | UACC-62 > 100 µM

Cc1ccnc(NC(=S)Nc2ccccc2Cl)c1
inactive: A498 > 100 µM | CCRF-CEM > 100 µM | COLO 205 > 100 µM | HL-60 > 100 µM | HT-29 > 100 µM | K562 > 100 µM | LOX IMVI > 100 µM | M14 > 100 µM | NCI/ADR-RES > 100 µM | OVCAR-8 77.8 µM | RXF 393 > 100 µM | SF-539 > 100 µM | SK-MEL-2 > 100 µM | SK-MEL-5 > 100 µM | SW-620 > 100 µM | TK-10 > 100 µM | UACC-257 > 100 µM | UACC-62 63.1 µM

CC[C@@]12CCC(=S)N(CCSc3ccccc3)[C@@H]1c1c(n(S(=O)(=O)c3ccc(OC)cc3)c3ccccc13)CC2
inactive: A498 > 100 µM | CCRF-CEM > 100 µM | COLO 205 > 100 µM | HL-60 > 100 µM | HT-29 > 100 µM | K562 > 100 µM | LOX IMVI > 100 µM | M14 > 100 µM | NCI-H23 > 100 µM | NCI/ADR-RES > 100 µM | OVCAR-8 > 100 µM | RXF 393 24.1 µM | SF-539 88.1 µM | SK-MEL-2 > 100 µM | SK-MEL-5 > 100 µM | SW-620 > 100 µM | TK-10 52 µM | UACC-257 > 100 µM | UACC-62 > 100 µM

COC(=O)CNCC1OC2OC(C)(C)OC2C1N=[N+]=[N-] (stereo not given)
inactive: A498 > 100 µM | ACHN > 100 µM | CCRF-CEM > 100 µM | COLO 205 > 10 µM | HL-60 > 100 µM | HT-29 > 100 µM | K562 > 100 µM | LOX IMVI > 100 µM | NCI/ADR-RES > 100 µM | OVCAR-8 > 100 µM | RXF 393 > 100 µM | SF-539 > 100 µM | SK-MEL-2 > 100 µM | SK-MEL-5 > 100 µM | SW-620 > 100 µM | TK-10 > 100 µM | UACC-257 > 100 µM | UACC-62 > 100 µM
